From ChEMBL document CHEMBL1201861, “Genomics of Drug Sensitity in Cancer screening data, Wellcome Trust Sanger Institute”

What was measured:
Test in all cases: cells
[1] = system: MV4-11; assay type: functional, cell-based, Homo sapiens, MV-4-11; conditions: Homo sapiens, MV4-11;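 also: cell viability readout measuring growth inhibition of human MV-4-11 cells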
Description: SANGER: Inhibition of human MV-4-11 cell growth in a cell viability assay.

[2] = system: HD-MY-Z; assay type: functional, cell-based, Homo sapiens; conditions: Homo sapiens, HD-MY-Z;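 also: growth inhibition of HD-MY-Z cells, read out with a cell viability assay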
Description: SANGER: Inhibition of human HD-MY-Z cell growth in a cell viability assay.

[3] = system: D283 Med; assay type: functional, cell-based, Homo sapiens; conditions: Homo sapiens, D283 Med
Description: SANGER: Inhibition of human D-283MED cell growth in a cell viability assay.

[4] = system: KNS-81-FD; assay type: functional, cell-based, Homo sapiens; conditions: Homo sapiens, KNS-81-FD;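 also: growth inhibition of KNS-81-FD cells, read out with a cell viability assay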
Description: SANGER: Inhibition of human KNS-81-FD cell growth in a cell viability assay.

[5] = system: ONS-76; assay type: functional, cell-based, Homo sapiens; conditions: Homo sapiens, ONS-76;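 also: growth inhibition of human ONS-76 cells, read out with a cell viability assay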
Description: SANGER: Inhibition of human ONS-76 cell growth in a cell viability assay.

[6] = system: NCI-H720; assay type: functional, cell-based, Homo sapiens; conditions: Homo sapiens, NCI-H720;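 also: growth inhibition of human NCI-H720 cells determined by a cell viability assay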
Description: SANGER: Inhibition of human NCI-H720 cell growth in a cell viability assay.

[7] = system: KM12; assay type: functional, cell-based, Homo sapiens; conditions: Homo sapiens, KM12;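 also: KM12 cell growth inhibition, read out with a cell viability assay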
Description: SANGER: Inhibition of human KM12 cell growth in a cell viability assay.

[8] = system: LB996-RCC; assay type: functional, cell-based, Homo sapiens; conditions: Homo sapiens, LB996-RCC
Description: SANGER: Inhibition of human LB996-RCC cell growth in a cell viability assay.

[9] = system: AM-38; assay type: functional, cell-based, Homo sapiens; conditions: Homo sapiens, AM-38;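 also: growth inhibition of AM-38 cells of human origin, read out by a cell viability assay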
Description: SANGER: Inhibition of human AM-38 cell growth in a cell viability assay.

[10] = system: KP-N-YS; assay type: functional, cell-based, Homo sapiens; conditions: Homo sapiens, KP-N-YS;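 also: cell viability assay measuring inhibition of cell line growth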
Description: SANGER: Inhibition of human KP-N-YS cell growth in a cell viability assay.

[11] = system: LS-1034; assay type: functional, cell-based, Homo sapiens; conditions: Homo sapiens, LS-1034
Description: SANGER: Inhibition of human LS-1034 cell growth in a cell viability assay.

[12] = system: NCI-H23; assay type: functional, cell-based, Homo sapiens; conditions: Homo sapiens, NCI-H23;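 also: cell viability assay measuring growth inhibition of NCI-H23 cells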
Description: SANGER: Inhibition of human NCI-H23 cell growth in a cell viability assay.

[13] = system: NCI-H1650; assay type: functional, cell-based, Homo sapiens; conditions: Homo sapiens, NCI-H1650;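 also: growth inhibition of human NCI-H1650 cells measured by a cell viability assay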
Description: SANGER: Inhibition of human NCI-H1650 cell growth in a cell viability assay.

[14] = system: HT-144; assay type: functional, cell-based, Homo sapiens; conditions: Homo sapiens, HT-144
Description: SANGER: Inhibition of human HT-144 cell growth in a cell viability assay.

[15] = system: A253 cell line; assay type: functional, cell-based, Homo sapiens; conditions: Homo sapiens, A253;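 also: growth inhibition of A253 cells, read out with a cell viability assay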
Description: SANGER: Inhibition of human A253 cell growth in a cell viability assay.

[16] = system: HL-60; assay type: functional, cell-based, Homo sapiens; conditions: Homo sapiens, HL-60;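 also: growth inhibition of human HL-60 cells, read out with a cell viability assay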
Description: SANGER: Inhibition of human HL-60 cell growth in a cell viability assay.

[17] = system: LB831-BLC; assay type: functional, cell-based, Homo sapiens; conditions: Homo sapiens, LB831-BLC;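 also: growth inhibition of LB831-BLC cells, read out with a cell viability assay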
Description: SANGER: Inhibition of human LB831-BLC cell growth in a cell viability assay.

[18] = system: UACC-257; assay type: functional, cell-based, Homo sapiens; conditions: Homo sapiens, UACC-257
Description: SANGER: Inhibition of human UACC-257 cell growth in a cell viability assay.

[19] = system: U-87 MG; assay type: functional, cell-based, Homo sapiens, U-87MG ATCC; conditions: Homo sapiens, U-87 MG;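 also: growth inhibition of the cells measured with a viability assay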
Description: SANGER: Inhibition of human U-87-MG cell growth in a cell viability assay.

[20] = system: Lu-65; assay type: functional, cell-based, Homo sapiens; conditions: Homo sapiens, Lu-65;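 also: growth inhibition of Lu-65 cancer cells, read out by a cell viability assay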
Description: SANGER: Inhibition of human LU-65 cell growth in a cell viability assay.

[21] = system: GI-ME-N; assay type: functional, cell-based, Homo sapiens; conditions: Homo sapiens, GI-ME-N;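 also: growth inhibition of human GI-ME-N cells, read out with a cell viability assay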
Description: SANGER: Inhibition of human GI-ME-N cell growth in a cell viability assay.

[22] = system: KG-1; assay type: functional, cell-based, Homo sapiens; conditions: Homo sapiens, KG-1;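 also: growth inhibition of KG-1 cells, read out by a cell viability assay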
Description: SANGER: Inhibition of human KG-1 cell growth in a cell viability assay.

[23] = system: NH-12; assay type: functional, cell-based, Homo sapiens; conditions: Homo sapiens, NH-12;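 also: growth inhibition of NH-12 cells, read out with a cell viability assay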
Description: SANGER: Inhibition of human NH-12 cell growth in a cell viability assay.

[24] = system: J-RT3-T3-5; assay type: functional, cell-based, Homo sapiens; conditions: Homo sapiens, J-RT3-T3-5;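 also: cell viability assay measuring growth inhibition of human J-RT3-T3-5 cells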
Description: SANGER: Inhibition of human J-RT3-T3-5 cell growth in a cell viability assay.

[25] = system: SK-N-DZ; assay type: functional, cell-based, Homo sapiens; conditions: Homo sapiens, SK-N-DZ; read-out: IC50;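 also: growth inhibition of the cancer cell line, read out through a viability assay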
Description: SANGER: Inhibition of human SK-N-DZ cell growth in a cell viability assay.

[26] = system: MHH-NB-11; assay type: functional, cell-based, Homo sapiens; conditions: Homo sapiens, MHH-NB-11;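 also: growth inhibition of human MHH-NB-11 cells, read out by a cell viability assay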
Description: SANGER: Inhibition of human MHH-NB-11 cell growth in a cell viability assay.

[27] = system: CW-2; assay type: functional, cell-based, Homo sapiens; conditions: Homo sapiens, CW-2;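 also: growth inhibition of CW-2 cells, read out by a cell viability assay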
Description: SANGER: Inhibition of human CW-2 cell growth in a cell viability assay.

[28] = system: DEL; assay type: functional, cell-based, Homo sapiens; conditions: Homo sapiens, DEL;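 also: growth inhibition of the human DEL cell line, read out with a cell viability assay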
Description: SANGER: Inhibition of human DEL cell growth in a cell viability assay.

[29] = system: SJSA-1; assay type: functional, cell-based, Homo sapiens; conditions: Homo sapiens, SJSA-1;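 also: growth inhibition of human SJSA-1 cells, read out through a cell viability measurement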
Description: SANGER: Inhibition of human SJSA-1 cell growth in a cell viability assay.

[30] = system: HCC1187; assay type: functional, cell-based, Homo sapiens; conditions: Homo sapiens, HCC1187;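 also: growth inhibition of HCC1187 cells, read out with a cell viability assay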
Description: SANGER: Inhibition of human HCC1187 cell growth in a cell viability assay.

[31] = system: MOLT-4; assay type: functional, cell-based, Homo sapiens; conditions: Homo sapiens, MOLT-4;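 also: growth inhibition of MOLT-4 cells, determined with a cell viability readout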
Description: SANGER: Inhibition of human MOLT-4 cell growth in a cell viability assay.

[32] = system: PSN1; assay type: functional, cell-based, Homo sapiens; conditions: Homo sapiens, PSN1;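 also: suppression of growth of human PSN1 cells, read out by a cell viability assay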
Description: SANGER: Inhibition of human PSN1 cell growth in a cell viability assay.

[33] = system: NEC8; assay type: functional, cell-based, Homo sapiens; conditions: Homo sapiens, NEC8;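 also: growth inhibition of human NEC8 cells, read out by a cell viability assay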
Description: SANGER: Inhibition of human NEC8 cell growth in a cell viability assay.

[34] = system: MHH-PREB-1; assay type: functional, cell-based, Homo sapiens; conditions: Homo sapiens, MHH-PREB-1;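 also: cell viability assay measuring inhibition of proliferation of human MHH-PREB-1 cells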
Description: SANGER: Inhibition of human MHH-PREB-1 cell growth in a cell viability assay.

[35] = system: SK-PN-DW; assay type: functional, cell-based, Homo sapiens; conditions: Homo sapiens, SK-PN-DW;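 also: growth inhibition measured with a viability assay on these cells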
Description: SANGER: Inhibition of human SK-PN-DW cell growth in a cell viability assay.

[36] = system: RCC10RGB; assay type: functional, cell-based, Homo sapiens; conditions: Homo sapiens, RCC10RGB;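 also: growth inhibition of human RCC10RGB cells, read out by a cell viability assay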
Description: SANGER: Inhibition of human RCC10RGB cell growth in a cell viability assay.

[37] = system: EKVX; assay type: functional, cell-based, Homo sapiens; conditions: Homo sapiens, EKVX;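 also: growth inhibition of human EKVX cells, read out with a cell viability assay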
Description: SANGER: Inhibition of human EKVX cell growth in a cell viability assay.

[38] = system: MEG-01; assay type: functional, cell-based, Homo sapiens; conditions: Homo sapiens, MEG-01;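 also: growth inhibition of MEG-01 cells, read out by a cell viability assay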
Description: SANGER: Inhibition of human MEG-01 cell growth in a cell viability assay.

[39] = system: BB49-HNC; assay type: functional, cell-based, Homo sapiens; conditions: Homo sapiens, BB49-HNC;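 also: cell viability assay read-out, reported as inhibition of BB49-HNC cell growth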
Description: SANGER: Inhibition of human BB49-HNC cell growth in a cell viability assay.

[40] = system: CCRF-CEM; assay type: functional, cell-based, Homo sapiens; conditions: Homo sapiens, CCRF-CEM;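 also: inhibition of CCRF-CEM cell growth, measured by a cell viability assay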
Description: SANGER: Inhibition of human CCRF-CEM cell growth in a cell viability assay.

[41] = system: RPMI-8226; assay type: functional, cell-based, Homo sapiens; conditions: Homo sapiens, RPMI-8226
Description: SANGER: Inhibition of human RPMI-8226 cell growth in a cell viability assay.

[42] = system: TE-10; assay type: functional, cell-based, Homo sapiens; conditions: Homo sapiens, TE-10;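 also: growth inhibition of TE-10 cells, measured by a cell viability assay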
Description: SANGER: Inhibition of human TE-10 cell growth in a cell viability assay.

[43] = system: LXF-289 cell line; assay type: functional, cell-based; conditions: Homo sapiens
Description: SANGER: Inhibition of human LXF-289 cell growth in a cell viability assay.

[44] = system: GR-ST; assay type: functional, cell-based, Homo sapiens; conditions: Homo sapiens, GR-ST
Description: SANGER: Inhibition of human GR-ST cell growth in a cell viability assay.

[45] = system: COLO-829; assay type: functional, cell-based, Homo sapiens; conditions: Homo sapiens, COLO-829
Description: SANGER: Inhibition of human COLO-829 cell growth in a cell viability assay.

[46] = system: K5; assay type: functional, cell-based, Homo sapiens; conditions: Homo sapiens, K5
Description: SANGER: Inhibition of human K5 cell growth in a cell viability assay.

[47] = system: KALS-1; assay type: functional, cell-based, Homo sapiens; conditions: Homo sapiens, KALS-1; read-out: IC50;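 also: growth inhibition of KALS-1 cells, determined with a cell viability assay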
Description: SANGER: Inhibition of human KALS-1 cell growth in a cell viability assay.

NC1(c2ccc(-c3nc4ccn5c(=O)[nH]nc5c4cc3-c3ccccc3)cc2)CCC1 [MK-2206]
IC50 [1]: 2.75 µM
IC50 [2]: > 4 µM
IC50 [3]: > 4 µM
IC50 [4]: > 4 µM
IC50 [5]: > 4 µM
IC50 [6]: 0.377 µM
IC50 [7]: > 4 µM
IC50 [8]: > 4 µM
IC50 [9]: > 4 µM
IC50 [10]: > 4 µM
IC50 [11]: > 4 µM
IC50 [12]: > 4 µM
IC50 [13]: > 4 µM
IC50 [14]: > 4 µM
IC50 [15]: > 4 µM
IC50 [16]: > 4 µM
IC50 [17]: > 4 µM
IC50 [18]: > 4 µM
IC50 [19]: > 4 µM
IC50 [20]: > 4 µM
IC50 [21]: > 4 µM
IC50 [22]: > 4 µM
IC50 [23]: > 4 µM
IC50 [24]: 0.744 µM
IC50 [25]: > 4 µM
IC50 [26]: > 4 µM
IC50 [27]: > 4 µM
IC50 [28]: > 4 µM
IC50 [29]: > 4 µM
IC50 [30]: > 4 µM
IC50 [31]: 0.806 µM
IC50 [32]: > 4 µM
IC50 [33]: 0.0965 µM
IC50 [34]: 3.72 µM
IC50 [35]: > 4 µM
IC50 [36]: > 4 µM
IC50 [37]: > 4 µM
IC50 [38]: > 4 µM
IC50 [39]: > 4 µM
IC50 [40]: > 4 µM
IC50 [41]: 2.63 µM
IC50 [42]: > 4 µM
IC50 [43]: 1.17 µM
IC50 [44]: 3.05 µM

O=C(NCCCNc1nc(Nc2cccc(NC(=O)N3CCCC3)c2)ncc1I)c1cccs1 [BX-795]
IC50 [1]: 0.0368 µM
IC50 [2]: 3.87 µM
IC50 [3]: 1.04 µM
IC50 [4]: > 5 µM
IC50 [5]: 4.08 µM
IC50 [7]: 3.3 µM
IC50 [45]: > 5 µM
IC50 [46]: > 5 µM
IC50 [8]: 4.51 µM
IC50 [9]: > 5 µM
IC50 [10]: > 5 µM
IC50 [11]: > 5 µM
IC50 [12]: > 5 µM
IC50 [13]: > 5 µM
IC50 [14]: > 5 µM
IC50 [15]: 4.19 µM
IC50 [16]: 2.54 µM
IC50 [17]: > 5 µM
IC50 [18]: > 5 µM
IC50 [19]: > 5 µM
IC50 [47]: 3.31 µM
IC50 [21]: 1.87 µM
IC50 [22]: 2.28 µM
IC50 [23]: 2.8 µM
IC50 [24]: > 5 µM
IC50 [25]: > 5 µM
IC50 [26]: > 5 µM
IC50 [27]: > 5 µM
IC50 [28]: 2.76 µM
IC50 [29]: > 5 µM
IC50 [30]: 2.9 µM
IC50 [31]: 1.03 µM
IC50 [32]: 2.79 µM
IC50 [33]: > 5 µM
IC50 [34]: 2.81 µM
IC50 [35]: > 5 µM
IC50 [36]: > 5 µM
IC50 [37]: > 5 µM
IC50 [38]: > 5 µM
IC50 [39]: > 5 µM
IC50 [40]: > 5 µM
IC50 [41]: > 5 µM
IC50 [42]: > 5 µM
IC50 [43]: 0.657 µM
IC50 [44]: 4.98 µM
